From ChEMBL document CHEMBL3885881, “DrugMatrix”

Species on record: Rattus norvegicus
Assay: DrugMatrix - Regimen: Daily Repeat
Assay type: toxicity, organism-based, Sprague-Dawley
Design: regimen Daily Repeat, gender Male, age 6-8 weeks
Conditions: in vivo, po, route oral GAVAGE, vehicle 100 % WATER; for ABSOLUTE BASOPHIL / ABSOLUTE EOSINOPHIL / ABSOLUTE LYMPHOCYTE / ABSOLUTE MONOCYTE / ABSOLUTE SEGMENTED NEUTROPHIL / BASOPHIL / EOSINOPHIL / ERYTHROCYTE COUNT / HEMATOCRIT / HEMOGLOBIN / LEUKOCYTE COUNT / LYMPHOCYTE / MEAN CORPUSCULAR HEMOGLOBIN / MEAN CORPUSCULAR HEMOGLOBIN CONCENTRATION / MEAN CORPUSCULAR VOLUME / MONOCYTE / NEUTROPHIL / NUCLEATED RED BLOOD CELLS / PLATELET COUNT: tissue Blood; for ALANINE AMINOTRANSFERASE / ALBUMIN / ALKALINE PHOSPHATASE / ASPARTATE AMINOTRANSFERASE / BLOOD UREA NITROGEN / CARBON DIOXIDE / CHLORIDE / CHOLESTEROL / CREATINE PHOSPHOKINASE / CREATININE / GLUCOSE / LACTATE DEHYDROGENASE / LIPASE / PHOSPHORUS / POTASSIUM / SODIUM / TOTAL BILIRUBIN / TOTAL PROTEIN / URIC ACID: tissue Plasma
[1] = 0 mg/kg, 72 h, dose level Control, time 3 day
[2] = 0 mg/kg, 120 h, dose level Control, time 5 day
[3] = 300 mg/kg, 72 h, dose level Low, time 3 day

CC(Cl)(Cl)Cl [TRICHLOROETHANE]
ABSOLUTE BASOPHIL [1]: 0 CELLS/uL | ABSOLUTE EOSINOPHIL [1]: 86.33 CELLS/uL | ABSOLUTE LYMPHOCYTE [1]: 12090.17 CELLS/uL | ABSOLUTE MONOCYTE [1]: 166.67 CELLS/uL | ABSOLUTE SEGMENTED NEUTROPHIL [1]: 1090.17 CELLS/uL | BASOPHIL [1]: 0% | EOSINOPHIL [1]: 0.67% | ERYTHROCYTE COUNT [1]: 5.57 x10E6/uL | HEMATOCRIT [1]: 35.33% | HEMOGLOBIN [1]: 13.83 G/DL | LEUKOCYTE COUNT [1]: 13.43 x10E3/uL | LYMPHOCYTE [1]: 89.83% | MEAN CORPUSCULAR HEMOGLOBIN [1]: 24.88 pg | MEAN CORPUSCULAR HEMOGLOBIN CONCENTRATION [1]: 39.15 G/DL | MEAN CORPUSCULAR VOLUME [1]: 63.52 fL | MONOCYTE [1]: 1.17% | NEUTROPHIL [1]: 8.33% | NUCLEATED RED BLOOD CELLS [1]: 0 /100WBC | PLATELET COUNT [1]: 1181.33 x10E3/uL | ALANINE AMINOTRANSFERASE [1]: 48.33 u/L | ALBUMIN [1]: 4.1 G/DL | ALKALINE PHOSPHATASE [1]: 395 u/L | ASPARTATE AMINOTRANSFERASE [1]: 81.83 u/L | BLOOD UREA NITROGEN [1]: 15.83 mg/dL | CARBON DIOXIDE [1]: 24.17 mmol/L | CHLORIDE [1]: 103.83 MEQ/L | CHOLESTEROL [1]: 63.67 mg/dL | CREATINE PHOSPHOKINASE [1]: 372.83 u/L | CREATININE [1]: 0.18 mg/dL | GLUCOSE [1]: 173.83 mg/dL | LACTATE DEHYDROGENASE [1]: 188.33 u/L | LIPASE [1]: 9.5 u/L | PHOSPHORUS [1]: 11.95 mg/dL | POTASSIUM [1]: 5.99 MEQ/L | SODIUM [1]: 144.43 MEQ/L | TOTAL BILIRUBIN [1]: 0.15 mg/dL | TOTAL PROTEIN [1]: 5.95 G/DL | URIC ACID [1]: 1.82 mg/dL | ABSOLUTE BASOPHIL [2]: 0 CELLS/uL | ABSOLUTE EOSINOPHIL [2]: 26.67 CELLS/uL | ABSOLUTE LYMPHOCYTE [2]: 7583.83 CELLS/uL | ABSOLUTE MONOCYTE [2]: 131.33 CELLS/uL | ABSOLUTE SEGMENTED NEUTROPHIL [2]: 674.83 CELLS/uL | BASOPHIL [2]: 0% | EOSINOPHIL [2]: 0.33% | ERYTHROCYTE COUNT [2]: 5.78 x10E6/uL | HEMATOCRIT [2]: 36.48% | HEMOGLOBIN [2]: 14.03 G/DL | LEUKOCYTE COUNT [2]: 8.42 x10E3/uL | LYMPHOCYTE [2]: 89.83% | MEAN CORPUSCULAR HEMOGLOBIN [2]: 24.3 pg | MEAN CORPUSCULAR HEMOGLOBIN CONCENTRATION [2]: 38.52 G/DL | MEAN CORPUSCULAR VOLUME [2]: 63.15 fL | MONOCYTE [2]: 1.67% | NEUTROPHIL [2]: 8.17% | NUCLEATED RED BLOOD CELLS [2]: 0 /100WBC | PLATELET COUNT [2]: 1186.67 x10E3/uL | ALANINE AMINOTRANSFERASE [2]: 50.17 u/L | ALBUMIN [2]: 4.07 G/DL | ALKALINE PHOSPHATASE [2]: 367.5 u/L | ASPARTATE AMINOTRANSFERASE [2]: 81.67 u/L | BLOOD UREA NITROGEN [2]: 16.17 mg/dL | CARBON DIOXIDE [2]: 32.33 mmol/L | CHLORIDE [2]: 101.5 MEQ/L | CHOLESTEROL [2]: 65.33 mg/dL | CREATINE PHOSPHOKINASE [2]: 255.33 u/L | CREATININE [2]: 0.17 mg/dL | GLUCOSE [2]: 139.33 mg/dL | LACTATE DEHYDROGENASE [2]: 95 u/L | LIPASE [2]: 10.5 u/L | PHOSPHORUS [2]: 10.38 mg/dL | POTASSIUM [2]: 6.11 MEQ/L | SODIUM [2]: 145.55 MEQ/L | TOTAL BILIRUBIN [2]: 0.17 mg/dL | TOTAL PROTEIN [2]: 5.98 G/DL | URIC ACID [2]: 0.93 mg/dL | ABSOLUTE BASOPHIL [3]: 0 CELLS/uL | ABSOLUTE EOSINOPHIL [3]: 37 CELLS/uL | ABSOLUTE LYMPHOCYTE [3]: 13276 CELLS/uL | ABSOLUTE MONOCYTE [3]: 236.33 CELLS/uL | ABSOLUTE SEGMENTED NEUTROPHIL [3]: 1084 CELLS/uL | BASOPHIL [3]: 0% | EOSINOPHIL [3]: 0.33% | ERYTHROCYTE COUNT [3]: 5.75 x10E6/uL | HEMATOCRIT [3]: 37.23% | HEMOGLOBIN [3]: 14.1 G/DL | LEUKOCYTE COUNT [3]: 14.63 x10E3/uL | LYMPHOCYTE [3]: 90.67% | MEAN CORPUSCULAR HEMOGLOBIN [3]: 24.53 pg | MEAN CORPUSCULAR HEMOGLOBIN CONCENTRATION [3]: 37.87 G/DL | MEAN CORPUSCULAR VOLUME [3]: 64.8 fL | MONOCYTE [3]: 1.67% | NEUTROPHIL [3]: 7.33% | NUCLEATED RED BLOOD CELLS [3]: 0 /100WBC | PLATELET COUNT [3]: 1274 x10E3/uL | ALANINE AMINOTRANSFERASE [3]: 52 u/L | ALBUMIN [3]: 4 G/DL | ALKALINE PHOSPHATASE [3]: 352.67 u/L | ASPARTATE AMINOTRANSFERASE [3]: 88.67 u/L | BLOOD UREA NITROGEN [3]: 16 mg/dL | CARBON DIOXIDE [3]: 24.67 mmol/L | CHLORIDE [3]: 102.33 MEQ/L | CHOLESTEROL [3]: 72 mg/dL | CREATINE PHOSPHOKINASE [3]: 1076 u/L | CREATININE [3]: 0.13 mg/dL | GLUCOSE [3]: 161 mg/dL | LACTATE DEHYDROGENASE [3]: 188.67 u/L | LIPASE [3]: 9 u/L | PHOSPHORUS [3]: 13.77 mg/dL | POTASSIUM [3]: 6.88 MEQ/L | SODIUM [3]: 144.3 MEQ/L | TOTAL BILIRUBIN [3]: 0.2 mg/dL | TOTAL PROTEIN [3]: 5.83 G/DL | URIC ACID [3]: 1.93 mg/dL
